This passage reports IC50 and Ki results from ChEMBL document CHEMBL1909046, “DrugMatrix in vitro pharmacology data”.

Cytochrome P450 2C9, sequence (P11712 whole entry): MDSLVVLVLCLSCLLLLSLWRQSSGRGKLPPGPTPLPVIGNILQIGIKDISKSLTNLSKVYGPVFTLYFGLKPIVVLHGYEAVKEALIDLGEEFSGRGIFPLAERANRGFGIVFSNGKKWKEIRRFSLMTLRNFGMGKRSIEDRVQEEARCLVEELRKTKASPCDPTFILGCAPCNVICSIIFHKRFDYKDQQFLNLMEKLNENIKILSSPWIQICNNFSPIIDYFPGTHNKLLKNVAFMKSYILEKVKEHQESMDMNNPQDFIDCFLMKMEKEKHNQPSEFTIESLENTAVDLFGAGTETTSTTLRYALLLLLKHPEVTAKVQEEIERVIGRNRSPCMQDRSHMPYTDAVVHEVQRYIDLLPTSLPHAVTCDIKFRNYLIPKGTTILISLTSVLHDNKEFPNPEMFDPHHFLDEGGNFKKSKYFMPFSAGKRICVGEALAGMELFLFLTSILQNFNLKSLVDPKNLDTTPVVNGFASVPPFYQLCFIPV
Cannabinoid receptor 1, sequence (P21554 whole entry): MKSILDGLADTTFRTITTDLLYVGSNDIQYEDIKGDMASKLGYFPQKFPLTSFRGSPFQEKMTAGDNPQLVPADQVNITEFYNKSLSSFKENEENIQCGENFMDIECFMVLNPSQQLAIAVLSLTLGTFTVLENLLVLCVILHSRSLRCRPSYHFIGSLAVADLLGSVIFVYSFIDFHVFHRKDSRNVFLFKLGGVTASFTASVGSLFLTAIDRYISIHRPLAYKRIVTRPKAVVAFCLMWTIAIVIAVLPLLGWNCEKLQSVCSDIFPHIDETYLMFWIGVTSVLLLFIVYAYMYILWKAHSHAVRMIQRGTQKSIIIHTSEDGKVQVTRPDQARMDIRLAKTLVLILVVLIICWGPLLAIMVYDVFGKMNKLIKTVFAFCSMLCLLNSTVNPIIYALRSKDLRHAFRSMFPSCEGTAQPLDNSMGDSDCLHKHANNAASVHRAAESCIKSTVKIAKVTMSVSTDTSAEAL
Beta-2 adrenergic receptor, sequence (P07550 whole entry): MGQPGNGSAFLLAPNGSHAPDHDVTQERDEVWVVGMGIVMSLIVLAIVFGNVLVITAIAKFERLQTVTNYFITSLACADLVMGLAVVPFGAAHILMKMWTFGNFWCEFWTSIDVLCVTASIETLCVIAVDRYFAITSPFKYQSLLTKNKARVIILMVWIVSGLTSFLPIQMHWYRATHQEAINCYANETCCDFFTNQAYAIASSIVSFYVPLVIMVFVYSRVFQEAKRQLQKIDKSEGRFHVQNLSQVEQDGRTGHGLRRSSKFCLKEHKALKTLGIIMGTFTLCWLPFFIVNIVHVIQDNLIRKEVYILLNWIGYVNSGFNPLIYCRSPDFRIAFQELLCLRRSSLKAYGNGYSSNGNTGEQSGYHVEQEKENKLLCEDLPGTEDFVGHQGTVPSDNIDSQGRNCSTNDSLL

One data set has as its target T1, Alpha-2C adrenergic receptor (Homo sapiens, UniProt P18825).
T1 sequence (P18825 whole entry): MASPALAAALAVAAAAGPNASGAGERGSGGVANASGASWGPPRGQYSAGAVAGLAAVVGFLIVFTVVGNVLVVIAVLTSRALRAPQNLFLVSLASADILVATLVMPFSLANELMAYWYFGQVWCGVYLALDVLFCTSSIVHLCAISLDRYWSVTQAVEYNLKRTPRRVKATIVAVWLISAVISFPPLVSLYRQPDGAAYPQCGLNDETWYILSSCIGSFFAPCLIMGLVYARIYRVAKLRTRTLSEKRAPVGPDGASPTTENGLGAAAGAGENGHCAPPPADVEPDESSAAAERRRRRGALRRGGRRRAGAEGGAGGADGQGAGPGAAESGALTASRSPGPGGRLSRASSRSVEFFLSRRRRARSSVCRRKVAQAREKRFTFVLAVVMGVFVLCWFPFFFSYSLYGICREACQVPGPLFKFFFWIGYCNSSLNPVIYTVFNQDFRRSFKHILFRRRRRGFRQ
As to the kind of experiment: DRUGMATRIX: Adrenergic Alpha-2C radioligand binding (ligand: [3H] MK-912). It is filed as cell membranes, Sf9, Membrane. The settings on record: sf9.
With `NCC[C@H](O)C(=O)N[C@@H]1C[C@H](N)[C@@H](O[C@H]2O[C@H](CN)[C@@H](O)[C@H](O)[C@H]2O)[C@H](O)[C@H]1O[C@H]1O[C@H](CO)[C@@H](O)[C@H](N)[C@H]1O` [AMIKACIN], the IC50 entry is reported as “Not Active”.

The target of the next data set is T2, 5-hydroxytryptamine receptor 1A (Rattus norvegicus, UniProt P19327). Also: in other assays of this panel Not Active means under 50% inhibition at 10 µM.
T2 sequence (P19327 whole entry): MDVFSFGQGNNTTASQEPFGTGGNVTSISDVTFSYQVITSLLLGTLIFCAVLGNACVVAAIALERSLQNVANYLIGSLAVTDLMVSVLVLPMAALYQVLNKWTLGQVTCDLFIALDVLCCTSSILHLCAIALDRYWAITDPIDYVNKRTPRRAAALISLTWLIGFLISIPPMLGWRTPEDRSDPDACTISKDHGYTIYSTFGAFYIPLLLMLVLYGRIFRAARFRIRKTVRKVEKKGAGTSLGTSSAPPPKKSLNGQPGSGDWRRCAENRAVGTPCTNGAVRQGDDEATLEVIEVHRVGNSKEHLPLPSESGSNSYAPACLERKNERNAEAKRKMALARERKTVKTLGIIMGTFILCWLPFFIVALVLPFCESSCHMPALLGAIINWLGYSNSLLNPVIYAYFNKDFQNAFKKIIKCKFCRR
In kind it is cell membranes, CHO-K1, Membrane. To be noted: cho-k1.
As to `NCC[C@H](O)C(=O)N[C@@H]1C[C@H](N)[C@@H](O[C@H]2O[C@H](CN)[C@@H](O)[C@H](O)[C@H]2O)[C@H](O)[C@H]1O[C@H]1O[C@H](CO)[C@@H](O)[C@H](N)[C@H]1O` [AMIKACIN], the IC50 result was “Not Active”.

Tested on in the next data set: not listed separately
In words: DRUGMATRIX: Phosphodiesterase PDE3 enzyme inhibition (substrate: [3H]cAMP + cAMP). It is filed as tissue-based, Homo sapiens. The settings on record: platelet; Not Active = under 50% inhibition at 10 µM.
In the case of `NCC[C@H](O)C(=O)N[C@@H]1C[C@H](N)[C@@H](O[C@H]2O[C@H](CN)[C@@H](O)[C@H](O)[C@H]2O)[C@H](O)[C@H]1O[C@H]1O[C@H](CO)[C@@H](O)[C@H](N)[C@H]1O` [AMIKACIN], the IC50 result is recorded as “Not Active” and the Ki result was “Not Active”.

Tested on in a further data set: not listed separately
In words: DRUGMATRIX: GABAA, Flunitrazepam, Central radioligand binding (ligand: [3H] Flunitrazepam). It is filed as cell membranes, Rattus norvegicus, Wistar, Brain, Membrane. To be noted: Not Active = under 50% inhibition at 10 µM.
For `NCC[C@H](O)C(=O)N[C@@H]1C[C@H](N)[C@@H](O[C@H]2O[C@H](CN)[C@@H](O)[C@H](O)[C@H]2O)[C@H](O)[C@H]1O[C@H]1O[C@H](CO)[C@@H](O)[C@H](N)[C@H]1O` [AMIKACIN], the IC50 entry was “Not Active” and the Ki entry is on record as “Not Active”.

The target of the next data set is Sodium-dependent noradrenaline transporter (Homo sapiens, UniProt P23975). As to the kind of experiment: DRUGMATRIX: Norepinephrine Transporter radioligand binding (ligand: [125I] RTI-55). In kind it is cell membranes, MDCK, Membrane. The settings on record: mdck; Not Active = under 50% inhibition at 10 µM.
Sodium-dependent noradrenaline transporter, sequence (P23975 whole entry): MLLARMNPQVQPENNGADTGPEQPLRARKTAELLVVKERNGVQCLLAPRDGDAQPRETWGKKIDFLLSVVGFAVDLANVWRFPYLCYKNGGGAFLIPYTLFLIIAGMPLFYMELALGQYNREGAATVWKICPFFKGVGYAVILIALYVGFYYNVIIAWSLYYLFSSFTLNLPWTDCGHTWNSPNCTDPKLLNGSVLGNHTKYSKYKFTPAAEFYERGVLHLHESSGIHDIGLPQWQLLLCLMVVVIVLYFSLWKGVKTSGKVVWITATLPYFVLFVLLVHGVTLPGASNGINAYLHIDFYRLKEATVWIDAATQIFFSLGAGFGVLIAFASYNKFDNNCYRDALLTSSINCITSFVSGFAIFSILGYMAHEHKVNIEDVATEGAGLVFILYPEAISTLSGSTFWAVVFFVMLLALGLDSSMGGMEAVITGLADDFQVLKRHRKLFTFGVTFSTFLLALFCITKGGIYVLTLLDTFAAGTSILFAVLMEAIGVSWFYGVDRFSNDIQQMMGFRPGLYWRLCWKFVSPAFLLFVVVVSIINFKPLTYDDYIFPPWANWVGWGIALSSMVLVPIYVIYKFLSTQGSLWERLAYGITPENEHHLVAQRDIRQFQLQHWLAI
Turning to `NCC[C@H](O)C(=O)N[C@@H]1C[C@H](N)[C@@H](O[C@H]2O[C@H](CN)[C@@H](O)[C@H](O)[C@H]2O)[C@H](O)[C@H]1O[C@H]1O[C@H](CO)[C@@H](O)[C@H](N)[C@H]1O` [AMIKACIN], the IC50 result is given as “Not Active”.

The next data set addresses Beta-2 adrenergic receptor (Homo sapiens, UniProt P07550). In words: DRUGMATRIX: Adrenergic beta2 radioligand binding (ligand: [3H] CGP-12177). In kind it is cell membranes, Membrane. To be noted: cho; Not Active = under 50% inhibition at 10 µM.
Turning to `NCC[C@H](O)C(=O)N[C@@H]1C[C@H](N)[C@@H](O[C@H]2O[C@H](CN)[C@@H](O)[C@H](O)[C@H]2O)[C@H](O)[C@H]1O[C@H]1O[C@H](CO)[C@@H](O)[C@H](N)[C@H]1O` [AMIKACIN], the IC50 entry was “Not Active”.

Tested on in another data set: not listed separately
In words: DRUGMATRIX: Atrial Natriuretic Factor (ANF) radioligand binding (ligand: [125I] ANF (rat)). In kind it is cell membranes, Cavia porcellus, Dunkin-Hartley, Adrenal gland, Membrane. The settings on record: Not Active = under 50% inhibition at 10 µM.
Consider `NCC[C@H](O)C(=O)N[C@@H]1C[C@H](N)[C@@H](O[C@H]2O[C@H](CN)[C@@H](O)[C@H](O)[C@H]2O)[C@H](O)[C@H]1O[C@H]1O[C@H](CO)[C@@H](O)[C@H](N)[C@H]1O` [AMIKACIN], for which the IC50 entry was “Not Active” and the Ki result is listed as “Not Active”.

Another data set deals with T3, Endothelin-1 receptor (Homo sapiens, UniProt P25101).
T3 sequence (P25101 whole entry): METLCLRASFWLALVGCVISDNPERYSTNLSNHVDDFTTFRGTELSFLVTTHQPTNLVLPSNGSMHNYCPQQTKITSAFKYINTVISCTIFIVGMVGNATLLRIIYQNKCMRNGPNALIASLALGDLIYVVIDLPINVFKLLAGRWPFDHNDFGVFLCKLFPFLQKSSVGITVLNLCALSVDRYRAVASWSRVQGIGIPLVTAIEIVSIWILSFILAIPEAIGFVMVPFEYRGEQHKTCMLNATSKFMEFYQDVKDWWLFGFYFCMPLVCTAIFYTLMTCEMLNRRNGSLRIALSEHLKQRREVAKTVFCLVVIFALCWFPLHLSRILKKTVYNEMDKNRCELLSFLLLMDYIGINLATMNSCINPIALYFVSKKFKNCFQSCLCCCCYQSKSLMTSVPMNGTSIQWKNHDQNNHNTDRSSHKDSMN
In kind it is cell membranes, Membrane. The settings on record: cho-k1.
With `NCC[C@H](O)C(=O)N[C@@H]1C[C@H](N)[C@@H](O[C@H]2O[C@H](CN)[C@@H](O)[C@H](O)[C@H]2O)[C@H](O)[C@H]1O[C@H]1O[C@H](CO)[C@@H](O)[C@H](N)[C@H]1O` [AMIKACIN], the IC50 entry is listed as “Not Active”.

Tested on in another data set: not listed separately
As to the kind of experiment: DRUGMATRIX: Calcium Channel Type L, Dihydropyridine radioligand binding (ligand: [3H] Nitrendipine). In kind it is cell membranes, Rattus norvegicus, Wistar, Cerebral cortex, Membrane. To be noted: Not Active = under 50% inhibition at 10 µM.
As for `NCC[C@H](O)C(=O)N[C@@H]1C[C@H](N)[C@@H](O[C@H]2O[C@H](CN)[C@@H](O)[C@H](O)[C@H]2O)[C@H](O)[C@H]1O[C@H]1O[C@H](CO)[C@@H](O)[C@H](N)[C@H]1O` [AMIKACIN], the IC50 result is reported as “Not Active” and the Ki entry is recorded as “Not Active”.

In the next data set the target is Kappa-type opioid receptor (Homo sapiens, UniProt P41145). As to the kind of experiment: DRUGMATRIX: Opiate kappa (OP2, KOP) radioligand binding (ligand: [3H] Diprenorphine). In kind it is cell membranes, HEK293, Membrane. To be noted: hek293; Not Active = under 50% inhibition at 10 µM.
Kappa-type opioid receptor, sequence (P41145 whole entry): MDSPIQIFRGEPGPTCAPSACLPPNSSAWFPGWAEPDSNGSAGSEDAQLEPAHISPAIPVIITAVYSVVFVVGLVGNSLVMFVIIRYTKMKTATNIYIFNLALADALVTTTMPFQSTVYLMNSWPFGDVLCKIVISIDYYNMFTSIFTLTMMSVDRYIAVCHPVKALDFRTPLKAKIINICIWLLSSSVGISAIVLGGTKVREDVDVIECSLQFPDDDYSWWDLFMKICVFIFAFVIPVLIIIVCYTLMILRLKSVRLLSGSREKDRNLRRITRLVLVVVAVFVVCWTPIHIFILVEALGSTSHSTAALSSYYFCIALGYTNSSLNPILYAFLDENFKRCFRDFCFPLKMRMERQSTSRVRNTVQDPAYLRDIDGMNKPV
As to `NCC[C@H](O)C(=O)N[C@@H]1C[C@H](N)[C@@H](O[C@H]2O[C@H](CN)[C@@H](O)[C@H](O)[C@H]2O)[C@H](O)[C@H]1O[C@H]1O[C@H](CO)[C@@H](O)[C@H](N)[C@H]1O` [AMIKACIN], the IC50 result was “Not Active”.

Another data set concerns the target Cannabinoid receptor 1 (Homo sapiens, UniProt P21554). It is filed as cell membranes, Membrane. The settings on record: chem-1. Also: in other assays of this panel Not Active means under 50% inhibition at 10 µM.
On to `NCC[C@H](O)C(=O)N[C@@H]1C[C@H](N)[C@@H](O[C@H]2O[C@H](CN)[C@@H](O)[C@H](O)[C@H]2O)[C@H](O)[C@H]1O[C@H]1O[C@H](CO)[C@@H](O)[C@H](N)[C@H]1O` [AMIKACIN], for which the IC50 entry is reported as “Not Active”.

A further data set concerns the target Cytochrome P450 2C9 (Homo sapiens, UniProt P11712). To be noted: bti-tn-5b1-4. Also: in other assays of this panel Not Active means under 50% inhibition at 10 µM.
`NCC[C@H](O)C(=O)N[C@@H]1C[C@H](N)[C@@H](O[C@H]2O[C@H](CN)[C@@H](O)[C@H](O)[C@H]2O)[C@H](O)[C@H]1O[C@H]1O[C@H](CO)[C@@H](O)[C@H](N)[C@H]1O` [AMIKACIN]: the IC50 result is on record as “Not Active” and the Ki entry was “Not Active”.

The next data set has as its target Protein phosphatase 3 catalytic subunit alpha (Homo sapiens, UniProt Q08209). More on the design: species or system Escherichia coli.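 Also: inhibition of calcineurin (PP2B) enzyme activity, measured with DiFMUP as the substrate; in other assays of this panel Not Active means under 50% inhibition at 10 µM.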
Conditions: not given
On to `NCC[C@H](O)C(=O)N[C@@H]1C[C@H](N)[C@@H](O[C@H]2O[C@H](CN)[C@@H](O)[C@H](O)[C@H]2O)[C@H](O)[C@H]1O[C@H]1O[C@H](CO)[C@@H](O)[C@H](N)[C@H]1O` [AMIKACIN], for which the IC50 entry is reported as “Not Active”.

In the next data set the target is T4, Muscarinic acetylcholine receptor M2 (Homo sapiens, UniProt P08172). Also: in other assays of this panel Not Active means under 50% inhibition at 10 µM.
T4 sequence (P08172 whole entry): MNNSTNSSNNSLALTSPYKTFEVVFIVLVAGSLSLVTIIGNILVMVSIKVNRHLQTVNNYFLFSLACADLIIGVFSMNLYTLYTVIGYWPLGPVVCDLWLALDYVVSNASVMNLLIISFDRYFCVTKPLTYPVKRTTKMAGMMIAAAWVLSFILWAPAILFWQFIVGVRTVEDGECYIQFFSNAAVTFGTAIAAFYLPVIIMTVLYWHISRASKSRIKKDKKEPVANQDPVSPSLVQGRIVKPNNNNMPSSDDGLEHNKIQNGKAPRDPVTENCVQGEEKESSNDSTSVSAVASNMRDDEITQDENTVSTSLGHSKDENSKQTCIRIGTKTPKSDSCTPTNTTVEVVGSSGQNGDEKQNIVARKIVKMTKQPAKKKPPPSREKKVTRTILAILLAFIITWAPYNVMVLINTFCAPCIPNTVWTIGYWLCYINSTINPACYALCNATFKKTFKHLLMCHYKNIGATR
In kind it is cell membranes, CHO-K1, Membrane. To be noted: cho-k1.
With `NCC[C@H](O)C(=O)N[C@@H]1C[C@H](N)[C@@H](O[C@H]2O[C@H](CN)[C@@H](O)[C@H](O)[C@H]2O)[C@H](O)[C@H]1O[C@H]1O[C@H](CO)[C@@H](O)[C@H](N)[C@H]1O` [AMIKACIN], the IC50 result is “Not Active”.
